According to US20250136553A1, “ACYLSULFONAMIDE KAT6A INHIBITORS” (Olema Pharmaceuticals, Inc., priority 2023, published 2025):

molecular target: human-KAT6A (MYST domain 507-778 aa) (Homo sapiens (Human), UniProt Q92794); experiment: KAT6A biochemical assay (TR-FRET); conditions: @ 1 μM; reported where IC50 could not be determined; read-out: Percent inhibition at specific concentration (KAT6A)
Source text: TR-FRET based methods were used for assaying compounds of the present invention for KAT6A enzyme inhibitory activity. TR-FRET is a homogeneous proximity assay where Europium-labelled anti-acetyl lysine antibody binds to the acetylated substrate labelled with biotin, which in turn binds to streptavidin-labelled APC fluorescence acceptor. Europium can transfer energy to APC in the complex and the interaction of two dye-labelled binding partners is detected by the energy transfer between a donor and an acceptor dye and the subsequent light emission by the acceptor dye. KAT6A transfer an acetyl group from acetyl CoA to lysine amino acids of histones/target proteins. […] The selected compound of the present invention and enzyme are incubated for 30 min on plate shaker at 300 rpm at 25° C. Next, 5 μL of substrate mix containing histone H4 peptide and acetyl-CoA in assay buffer is added to the plate. The final concentrations of H4 peptide and acetyl-CoA are 200 nM and 600 nM, respectively. Following 60 min reaction at 25° C. on plate shaker at 300 rpm, 5 μL of detection mix containing Europium-labelled anti-acetyl antibody and streptavidin-APC is added to the reaction wells. The plate is further incubated at 25° C. on shaker at 300 rpm and is read in TR-FRET mode (Ex:340 nm; Em: 615 nm and 665 nm) on a plate reader to achieve ˜5-7-fold activity. The percent inhibition was calculated from the ratio of the fluorescence (FL) intensities [(F665/F615)×10000) using the formula […]. IC50 values of the compounds were determined by fitting the dose-response data to sigmoidal curve fitting equation using Graph pad prism software V9.

human-KAT6A (MYST domain 507-778 aa), sequence (Q92794 507-778): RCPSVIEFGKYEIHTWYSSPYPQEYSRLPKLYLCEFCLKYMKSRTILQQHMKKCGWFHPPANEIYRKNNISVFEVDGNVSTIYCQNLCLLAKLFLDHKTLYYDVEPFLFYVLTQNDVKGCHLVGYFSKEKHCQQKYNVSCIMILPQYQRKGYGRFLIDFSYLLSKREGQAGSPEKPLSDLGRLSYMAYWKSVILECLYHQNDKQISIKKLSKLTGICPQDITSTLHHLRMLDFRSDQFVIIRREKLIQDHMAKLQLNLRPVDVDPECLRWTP

Row | inhibition at 1 µM | SMILES
1 | 16% | COc1cccc(OC)c1S(=O)(=O)NC(=O)c1ccc(Cn2cccn2)c(OC(F)F)n1 [Compound 215, 5-((1H-pyrazol-1-yl)methyl)-6-(difluoromethoxy)-N-((2,6-dimethoxyphenyl)sulfonyl)picolinamide]

same assay, conditions: TR-FRET; histone H4 peptide 200 nM, acetyl-CoA 600 nM; read-out: KAT6A IC50

Row | IC50 | SMILES
2 | 3 nM | COc1cc(C(=O)NS(=O)(=O)c2cc(C(C)(C)O)ccc2OC)ccc1Cn1cccn1 [Compound 54, 4-((1H-pyrazol-1-yl)methyl)-N-((5-(2-hydroxypropan-2-yl)-2-methoxyphenyl)sulfonyl)-3-methoxybenzamide]
3 | 11 nM | COc1cc(C(=O)NS(=O)(=O)c2c(OC)cccc2OC(C)C)ccc1Cn1cccn1 [Compound 55, 4-((1H-pyrazol-1-yl)methyl)-N-((2-isopropoxy-6-methoxyphenyl)sulfonyl)-3-methoxybenzamide]
4 | 11 nM | COc1cc(C(=O)NS(=O)(=O)c2c(OC)ccc3c2CCCC3)ccc1Cn1cccn1 [Compound 57, 4-((1H-pyrazol-1-yl)methyl)-3-methoxy-N-((2-methoxy-5,6,7,8-tetrahydronaphthalen-1-yl)sulfonyl)benzamide]
5 | 177 nM | COc1cc(C(=O)NS(=O)(=O)c2c(OC)cccc2OC)ccc1COc1nccs1 [Compound 58, N-((2,6-dimethoxyphenyl)sulfonyl)-3-methoxy-4-((thiazol-2-yloxy)methyl)benzamide]
6 | 33 nM | COc1cc(C(=O)NS(=O)(=O)c2c(OC)cccc2OC)ccc1Oc1nccs1 [Compound 59, N-((2,6-dimethoxyphenyl)sulfonyl)-3-methoxy-4-(thiazol-2-yloxy)benzamide]
7 | 8 nM | COc1cc(C(=O)NS(=O)(=O)c2c(OC)ccc(C)c2OC)ccc1Cn1cccn1 [Compound 60, 4-((1H-pyrazol-1-yl)methyl)-N-((2,6-dimethoxy-3-methylphenyl)sulfonyl)-3-methoxybenzamide]
8 | 6 nM | COc1cc(C(=O)NS(=O)(=O)c2c(OC)ccc(C3CC3)c2OC)ccc1Cn1cccn1 [Compound 61, 4-((1H-pyrazol-1-yl)methyl)-N-((3-cyclopropyl-2,6-dimethoxyphenyl)sulfonyl)-3-methoxybenzamide]
9 | 13 nM | CCc1ccc(OC)c(S(=O)(=O)NC(=O)c2ccc(Cn3cccn3)c(OC)c2)c1OC [Compound 66, 4-((1H-pyrazol-1-yl)methyl)-N-((3-ethyl-2,6-dimethoxyphenyl)sulfonyl)-3-methoxybenzamide]
10 | 11 nM | CCOc1cccc(OC)c1S(=O)(=O)NC(=O)c1ccc(Cn2cccn2)c(OC)c1 [Compound 67, 4-((1H-pyrazol-1-yl)methyl)-N-((2-ethoxy-6-methoxyphenyl)sulfonyl)-3-methoxybenzamide]
11 | 23 nM | COc1cc(C(=O)NS(=O)(=O)c2c(OC)cccc2OCC(F)(F)F)ccc1Cn1cccn1 [Compound 68, 4-((1H-pyrazol-1-yl)methyl)-3-methoxy-N-((2-methoxy-6-(2,2,2-trifluoroethoxy)phenyl)sulfonyl)benzamide]
12 | 114 nM | COc1cccc(OC)c1S(=O)(=O)NC(=O)c1ccc(Cn2cccn2)c(OC)c1F [Compound 69, 4-((1H-pyrazol-1-yl)methyl)-N-((2,6-dimethoxyphenyl)sulfonyl)-2-fluoro-3-methoxybenzamide]
13 | 34 nM | COc1cc(C(=O)NS(=N)(=O)c2c(OC)cccc2OC)ccc1Cn1cccn1 (stereo not drawn) [Compound 71, 4-((1H-pyrazol-1-yl)methyl)-N-(2,6-dimethoxyphenylsulfonimidoyl)-3-methoxybenzamide]
14 | 731 nM | COc1ccc(C(C)(C)C)cc1S(=O)(=O)NC(=O)c1ccc(Cn2cccn2)cn1 [Compound 201, 5-((1H-pyrazol-1-yl)methyl)-N-((5-(tert-butyl)-2-methoxyphenyl)sulfonyl)picolinamide]
15 | 104 nM | COc1cc(C(=O)NS(=O)(=O)c2c(OC)cccc2OC)cnc1Cn1cccn1 [Compound 202, 6-((1H-pyrazol-1-yl)methyl)-N-((2,6-dimethoxyphenyl)sulfonyl)-5-methoxynicotinamide]
16 | 6 nM | CCc1ccc(OC)c(S(=O)(=O)NC(=O)c2ccc(Cn3cccn3)c(OC)n2)c1 [Compound 204, 5-((1H-pyrazol-1-yl)methyl)-N-((5-ethyl-2-methoxyphenyl)sulfonyl)-6-methoxypicolinamide]
17 | 8 nM | COc1ccc(C(C)(C)C)cc1S(=O)(=O)NC(=O)c1ccc(Cn2cccn2)c(OC)n1 [Compound 205, 5-((1H-pyrazol-1-yl)methyl)-N-((5-(tert-butyl)-2-methoxyphenyl)sulfonyl)-6-methoxypicolinamide]

Row | IC50 | SMILES
18 | 8 nM | COc1ccc(C2CC2)cc1S(=O)(=O)NC(=O)c1ccc(Cn2cccn2)c(OC)n1 [Compound 206, 5-((1H-pyrazol-1-yl)methyl)-N-((5-cyclopropyl-2-methoxyphenyl)sulfonyl)-6-methoxypicolinamide]
19 | 10 nM | COc1ccc(C(F)(F)F)cc1S(=O)(=O)NC(=O)c1ccc(Cn2cccn2)c(OC)n1 [Compound 207, 5-((1H-pyrazol-1-yl)methyl)-6-methoxy-N-((2-methoxy-5-(trifluoromethyl)phenyl)sulfonyl)picolinamide]
20 | 22 nM | COc1ccccc1S(=O)(=O)NC(=O)c1ccc(Cn2cccn2)c(OC)n1 [Compound 208, 5-((1H-pyrazol-1-yl)methyl)-6-methoxy-N-((2-methoxyphenyl)sulfonyl)picolinamide]
21 | 71 nM | COc1cccc(OC)c1S(=O)(=O)NC(=O)c1ccc(Cn2cccn2)c(C)n1 [Compound 209, 5-((1H-pyrazol-1-yl)methyl)-N-((2,6-dimethoxyphenyl)sulfonyl)-6-methylpicolinamide]
22 | 64 nM | CCc1ccc(OC)c(S(=O)(=O)NC(=O)c2cc(OC)c(Cn3cccn3)cn2)c1 [Compound 210, 5-((1H-pyrazol-1-yl)methyl)-N-((5-ethyl-2-methoxyphenyl)sulfonyl)-4-methoxypicolinamide]
23 | 8 nM | COc1ccc2c(c1S(=O)(=O)NC(=O)c1ccc(Cn3cccn3)c(OC)n1)OCC2 [Compound 211, 5-((1H-pyrazol-1-yl)methyl)-6-methoxy-N-((6-methoxy-2,3-dihydrobenzofuran-7-yl)sulfonyl)picolinamide]
24 | 140 nM | COc1cc(C(=O)NS(=O)(=O)c2c(OC)cccc2OC)ncc1Cn1cccn1 [Compound 212, 5-((1H-pyrazol-1-yl)methyl)-N-((2,6-dimethoxyphenyl)sulfonyl)-4-methoxypicolinamide]
25 | 12 nM | COc1cc2c(cc1S(=O)(=O)NC(=O)c1ccc(Cn3cccn3)c(OC)n1)CCC2 [Compound 213, 5-((1H-pyrazol-1-yl)methyl)-6-methoxy-N-((6-methoxy-2,3-dihydro-1H-inden-5-yl)sulfonyl)picolinamide]
26 | 12 nM | COc1ccc(C)cc1S(=O)(=O)NC(=O)c1ccc(Cn2cccn2)c(OC)n1 [Compound 214, 5-((1H-pyrazol-1-yl)methyl)-6-methoxy-N-((2-methoxy-5-methylphenyl)sulfonyl)picolinamide]
27 | 12 nM | COc1ccc2c(c1S(=O)(=O)NC(=O)c1ccc(Cn3cccn3)c(OC)n1)CCC2 [Compound 216, 5-((1H-pyrazol-1-yl)methyl)-6-methoxy-N-((5-methoxy-2,3-dihydro-1H-inden-4-yl)sulfonyl)picolinamide]
28 | 11 nM | COc1ccc2c(c1S(=O)(=O)NC(=O)c1ccc(Cn3cccn3)c(OC)n1)CCCC2 [Compound 217, 5-((1H-pyrazol-1-yl)methyl)-6-methoxy-N-((2-methoxy-5,6,7,8-tetrahydronaphthalen-1-yl)sulfonyl)picolinamide]
29 | 8 nM | CCOc1cccc(OC)c1S(=O)(=O)NC(=O)c1ccc(Cn2cccn2)c(OC)n1 [Compound 218, 5-((1H-pyrazol-1-yl)methyl)-N-((2-ethoxy-6-methoxyphenyl)sulfonyl)-6-methoxypicolinamide]
30 | 7 nM | COc1cccc(OC(F)F)c1S(=O)(=O)NC(=O)c1ccc(Cn2cccn2)c(OC)n1 [Compound 220, 5-((1H-pyrazol-1-yl)methyl)-N-((2-(difluoromethoxy)-6-methoxyphenyl)sulfonyl)-6-methoxypicolinamide]
31 | 5 nM | COc1cccc(OC(C)C)c1S(=O)(=O)NC(=O)c1ccc(Cn2cccn2)c(OC)n1 [Compound 221, 5-((1H-pyrazol-1-yl)methyl)-N-((2-isopropoxy-6-methoxyphenyl)sulfonyl)-6-methoxypicolinamide]
32 | 18 nM | COc1ccc(C)c(OC)c1S(=O)(=O)NC(=O)c1ccc(Cn2cccn2)c(OC)n1 [Compound 222, 5-((1H-pyrazol-1-yl)methyl)-N-((2,6-dimethoxy-3-methylphenyl)sulfonyl)-6-methoxypicolinamide]

Row | SMILES | IC50
33 | COc1cccc(OC2CCC2)c1S(=O)(=O)NC(=O)c1ccc(Cn2cccn2)c(OC)n1 [Compound 219, 5-((1H-pyrazol-1-yl)methyl)-N-((2-cyclobutoxy-6-methoxyphenyl)sulfonyl)-6-methoxypicolinamide] | 9 nM
